Measured values from patent publication US5262431A, “Prolinal derivatives and pharmaceutical compositions thereof” (Ono Pharmaceutical Co., Ltd., priority 1986, dated 1993).
Peptide text beside a SMILES is read from it. * marks the point of attachment. Cbz = O=C(OCc1ccccc1)*; CH2Cl = ClC*

System: prolyl endopeptidase
Experiment: not given
Conditions: literature; cited from earlier work

Row | Molecule | inhibition of prolyl endopeptidase (in words)
1 | O=C(NCC(=O)N1CCC[C@H]1C(=O)CCl)OCc1ccccc1 [N-benzyloxycarbonyl-glycyl-L-prolyl-chloromethane] (Cbz-Gly-Pro-CH2Cl) | strongly inhibit prolyl endopeptidase

Target: T1, prolyl endopeptidase (Bos taurus, UniProt Q9XTA2)
T1 construct: prolyl endopeptidase which was purified from bovine brain; from tissue; host or cells: bovine brain
T1 sequence (Q9XTA2 1-710): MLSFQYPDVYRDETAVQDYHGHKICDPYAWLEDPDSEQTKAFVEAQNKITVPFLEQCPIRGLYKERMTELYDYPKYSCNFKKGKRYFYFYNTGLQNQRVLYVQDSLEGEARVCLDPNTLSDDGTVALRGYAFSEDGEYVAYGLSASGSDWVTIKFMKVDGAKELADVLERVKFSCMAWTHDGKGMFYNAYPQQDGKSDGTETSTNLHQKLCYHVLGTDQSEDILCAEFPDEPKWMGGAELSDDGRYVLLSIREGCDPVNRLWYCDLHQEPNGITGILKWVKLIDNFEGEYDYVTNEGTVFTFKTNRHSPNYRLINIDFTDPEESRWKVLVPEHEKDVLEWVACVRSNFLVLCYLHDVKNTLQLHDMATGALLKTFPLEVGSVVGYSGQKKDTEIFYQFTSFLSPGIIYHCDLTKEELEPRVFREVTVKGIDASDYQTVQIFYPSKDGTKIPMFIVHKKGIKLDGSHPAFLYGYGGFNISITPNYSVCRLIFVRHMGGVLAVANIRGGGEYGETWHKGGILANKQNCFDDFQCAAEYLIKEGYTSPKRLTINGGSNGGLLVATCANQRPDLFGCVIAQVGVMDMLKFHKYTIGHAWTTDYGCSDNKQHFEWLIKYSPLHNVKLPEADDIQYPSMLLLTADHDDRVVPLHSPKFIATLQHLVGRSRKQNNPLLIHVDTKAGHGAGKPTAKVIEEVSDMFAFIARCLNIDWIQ
Experiment: Prolyl endopeptidase inhibitory activity in vitro
Format: biochemical, bovine
Conditions: not given
Procedure: Prolyl Endopeptidase Inhibitory Activity In Vitro
Inhibitory activity of prolyl endopeptidase in vitro was measured by the following test system.
A mixed solution of 20 mM tris-HCl buffer (pH 7.5; 935 μl; containing 10 mM EDTA and 10 mM mercaptoethanol), a solution of a compound of the present invention In DMSO (10 μl) and a solution of prolyl endopeptidase which was purified from bovine brain (0.13 unit; prepared by the method described in J. Biochem., 94, 1179 (1983)) in tris-HCl buffer (15 μl) was preincubated for 15 mins at 37° C.
To the solution, 5 mM of N-benzyloxycarbonyl-glycyl-prolyl-p-nitroanilide (40 μl) in a mixture of 40% dioxane-60% water was added. The solution was incubated for 1 min at the same temperature.
Optical absorption (a1) at 405 nm of the solution, and optical absorption (a2) at 405 nm of the solution after more 30 mins' incubation at 37° C. were measured.
Optical absorptions (b1 and b2) of the solutions using DMSO instead of the solution of the compound of the present invention were also measured.
Inhibitory ratio was calculated by the following expression and IC50 (required concentration for 50% inhibition) was obtained (See Protein, Nucleic acid and Enzyme 25(6), 513, 1980.). [formula]

Row | Molecule | IC50
2 | CC(C)C(CCCCCCCc1ccccc1)C(=O)N1CCC[C@H]1C=O (stereo partly drawn) [1(d), N-(2-isopropyl-9-phenyl-nonanoyl)-L-prolinal] | 230 nM
3 | CC(C)C(CCCCCc1ccccc1)C(=O)N1CCC[C@H]1C=O (stereo partly drawn) [1(b), N-(2-isopropyl-7-phenyl-heptanoyl)-L-prolinal] | 80 nM
4 | CC(C)C(CCc1ccccc1)C(=O)N1CCC[C@H]1C=O (stereo partly drawn) [N-(2-isopropyl-4-phenyl-butyryl)-L-prolinal, reference compound] | > 5000 nM
5 | O=C[C@@H]1CCCN1C(=O)[C@@H]1CCC[C@H]1CCCCc1ccccc1 (relative stereo) [Example 2, N-[DL-Trans-2-(4-Phenylbutyl)Cyclopentanecarbonyl] -L-prolinal] | 130 nM
6 | CC(C)C(CCCc1ccccc1)C(=O)N1CCC[C@H]1C=O (stereo partly drawn) [1(a), N-(2-isopropyl-5-phenyl-pentanoyl)-L-prolinal] | 370 nM
7 | CC(C)C(CCCCCCc1ccccc1)C(=O)N1CCC[C@H]1C=O (stereo partly drawn) [1(c), N-(2-isopropyl-8-phenyl-octanoyl)-L-prolinal] | 190 nM
8 | COc1ccc(CCCCCC(C(=O)N2CCC[C@H]2C=O)C(C)C)cc1 (some centres unmarked) | 170 nM
9 | CC(C)C(CCCCCCCCc1ccccc1)C(=O)N1CCC[C@H]1C=O (stereo partly drawn) [1(e), N-(2-isopropyl-10-phenyldecanoyl)-L-prolinal] | 120 nM
10 | COc1ccc(CCCC(=O)N2CCC[C@H]2C=O)cc1 [N-[4-(4-methoxyphenyl)bu-tyryl]-L-prolinal, reference compound] | 21000 nM
11 | CC(C)C(CCCCc1ccccc1)C(=O)N1CCC[C@H]1C=O (stereo partly drawn) [Example 1, N-(2-Isopropyl-6-Phenylhexanoyl)-L-Prolinal] | 280 nM

Same assay, conditions: Table I, formula (Ia); purified from bovine brain; pH 7.5, 37° C.; read-out: Concentration for 50% inhibition IC50

Row | Molecule | IC50
12 | N-[9-(4-phenylbutyl)cyclo-hexane carbonyl]-L-prolinal [2(a)] | 430 nM

Same assay, conditions: read-out: Concentration for 50% inhibition IC50; Table II, formula (Ib); purified from bovine brain; pH 7.5, 37° C.

Row | Molecule | IC50
13 | O=C[C@@H]1CCCN1C(=O)C(CCCCc1ccccc1)C1CCCCC1 (some centres unmarked) | 690 nM
14 | O=C[C@@H]1CCCN1C(=O)C(CCCCCc1ccccc1)c1ccccc1 (some centres unmarked) | 610 nM
